From US8846653B2, “Delta-tocotrienol treatment and prevention of pancreatic cancer” (University of South Florida, priority 2006, dated 2014)

Legend:
Assay type in all cases: cell-based, human
MiaPaCa-2 cells [1] = assay: MTT assay of MiaPaCa2 cultures, single 50 μM dose; design: rel amt (relative value set to the control): unit not given here; conditions: MiaPaCa2, 50 μM; for MTT assay result, av-blank: average minus blank; for MTT assay result, av: average of 7 runs
Method in brief: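 MiaPaCa-2 cells given a single 50 μM dose of test agent (tocotrienols, tocopherols, tocopherol succinate, geranylgeraniol or succinic acid) or vehicle (ethanol-extracted olive oil). Viability read by MTT at 48 or 120 hours after treatment, alongside vehicle-only control culture.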

MiaPaCa-2 cells [2] = assay: MTS assay of MiaPaCa2 cultures, single 50 μM dose; conditions: MiaPaCa2, 50 μM
Method in brief: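 MiaPaCa-2 pancreatic cancer cells were grown in complete DMEM with 10% fetal bovine serum, 1% penicillin-streptomycin and 1% L-glutamine, kept at 37° C. in a humidified 5% CO2 incubator. They received a single 50 μM dose of test agent or vehicle alongside an untreated control culture, and viability was assessed by MTS assay.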

BXPC3 cells = assay: MTT assay of BXPC3 cultures, single 50 μM dose; design: MTT assay result, run 1 / MTT assay result, run 2 / MTT assay result, run 3 / MTT assay result, run 4 / MTT assay result, run 5 / MTT assay result, run 6 / MTT assay result, run 7 / MTT assay result, av (average) / MTT assay result, av-blank / MTT assay result, av: unit not given here; conditions: BXPC3, 50 μM; for MTT assay result, av-blank: average minus blank
Method in brief: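 BXPC3 cells in 10% FBS medium at 37° C, 5% CO2, given a single 50 μM dose of tocotrienols, tocopherols, tocopherol succinate, geranylgeraniol, succinic acid or vehicle, alongside untreated control. Viability read by MTT at 48 or 120 hours.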

Compound: CC(C)=CCC/C(C)=C/CC/C(C)=C/CC[C@]1(C)CCc2cc(O)cc(C)c2O1 [T3 delta, delta tocotrienol]
- rel amt (relative value set to the control) (MiaPaCa-2 cells [1]; 48 hours): 70
- MTT assay result, av-blank (MiaPaCa-2 cells [1]; 48 hours): 0.217
- MTT assay result, av (MiaPaCa-2 cells [1]; 48 hours): 0.263
- MTT assay result, run 1 (MiaPaCa-2 cells [1]; 48 hours): 0.276
- MTT assay result, run 2 (MiaPaCa-2 cells [1]; 48 hours): 0.284
- MTT assay result, run 3 (MiaPaCa-2 cells [1]; 48 hours): 0.262
- MTT assay result, run 4 (MiaPaCa-2 cells [1]; 48 hours): 0.239
- MTT assay result, run 5 (MiaPaCa-2 cells [1]; 48 hours): 0.275
- MTT assay result, run 6 (MiaPaCa-2 cells [1]; 48 hours): 0.239
- MTT assay result, run 7 (MiaPaCa-2 cells [1]; 48 hours): 0.269
- rel amt (relative value set to the control) (MiaPaCa-2 cells [1]; 120 hours (5 days)): 72
- MTT assay result, av-blank (MiaPaCa-2 cells [1]; 120 hours (5 days)): 1.304
- MTT assay result, av (MiaPaCa-2 cells [1]; 120 hours (5 days)): 1.356
- MTT assay result, run 1 (MiaPaCa-2 cells [1]; 120 hours (5 days)): 1.344
- MTT assay result, run 2 (MiaPaCa-2 cells [1]; 120 hours (5 days)): 1.314
- MTT assay result, run 3 (MiaPaCa-2 cells [1]; 120 hours (5 days)): 1.27
- MTT assay result, run 4 (MiaPaCa-2 cells [1]; 120 hours (5 days)): 1.337
- MTT assay result, run 5 (MiaPaCa-2 cells [1]; 120 hours (5 days)): 1.579
- MTT assay result, run 6 (MiaPaCa-2 cells [1]; 120 hours (5 days)): 1.308
- MTT assay result, run 7 (MiaPaCa-2 cells [1]; 120 hours (5 days)): 1.341
- rel amt (relative value set to the control) (MiaPaCa-2 cells [2]; 24 hours): 77
- MTS assay result, run 1 (MiaPaCa-2 cells [2]; 24 hours): 0.174
- MTS assay result, run 2 (MiaPaCa-2 cells [2]; 24 hours): 0.159
- MTS assay result, run 3 (MiaPaCa-2 cells [2]; 24 hours): 0.171
- MTS assay result, run 4 (MiaPaCa-2 cells [2]; 24 hours): 0.139
- MTS assay result, run 5 (MiaPaCa-2 cells [2]; 24 hours): 0.185
- MTS assay result, run 6 (MiaPaCa-2 cells [2]; 24 hours): 0.187
- MTS assay result, run 7 (MiaPaCa-2 cells [2]; 24 hours): 0.18
- MTS assay result, run 8 (MiaPaCa-2 cells [2]; 24 hours): 0.167
- MTS assay result, run 9 (MiaPaCa-2 cells [2]; 24 hours): 0.170
- rel amt (relative value set to the control) (MiaPaCa-2 cells [2]; 48 hours): 67
- MTS assay result, run 1 (MiaPaCa-2 cells [2]; 48 hours): 0.229
- MTS assay result, run 2 (MiaPaCa-2 cells [2]; 48 hours): 0.22
- MTS assay result, run 3 (MiaPaCa-2 cells [2]; 48 hours): 0.218
- MTS assay result, run 4 (MiaPaCa-2 cells [2]; 48 hours): 0.232
- MTS assay result, run 5 (MiaPaCa-2 cells [2]; 48 hours): 0.294
- MTS assay result, run 6 (MiaPaCa-2 cells [2]; 48 hours): 0.272
- MTS assay result, run 7 (MiaPaCa-2 cells [2]; 48 hours): 0.221
- MTS assay result, run 8 (MiaPaCa-2 cells [2]; 48 hours): 0.243
- MTS assay result, run 9 (MiaPaCa-2 cells [2]; 48 hours): 0.241
- rel amt (relative value set to the control) (MiaPaCa-2 cells [2]; 72 hours): 132
- MTS assay result, run 1 (MiaPaCa-2 cells [2]; 72 hours): 0.667
- MTS assay result, run 2 (MiaPaCa-2 cells [2]; 72 hours): 0.615
- MTS assay result, run 3 (MiaPaCa-2 cells [2]; 72 hours): 0.605
- MTS assay result, run 4 (MiaPaCa-2 cells [2]; 72 hours): 0.587
- MTS assay result, run 5 (MiaPaCa-2 cells [2]; 72 hours): 0.582
- MTS assay result, run 6 (MiaPaCa-2 cells [2]; 72 hours): 0.491
- MTS assay result, run 7 (MiaPaCa-2 cells [2]; 72 hours): 0.524
- MTS assay result, run 8 (MiaPaCa-2 cells [2]; 72 hours): 0.604
- MTS assay result, run 9 (MiaPaCa-2 cells [2]; 72 hours): 0.584
- rel amt (relative value set to the control) (BXPC3 cells; 48 hours): 95
- MTT assay result, av-blank (BXPC3 cells; 48 hours): 0.216
- MTT assay result, av (average) (BXPC3 cells; 48 hours, average of 7 runs): 0.265
- MTT assay result, run 1 (BXPC3 cells; 48 hours): 0.26
- MTT assay result, run 2 (BXPC3 cells; 48 hours): 0.255
- MTT assay result, run 3 (BXPC3 cells; 48 hours): 0.24
- MTT assay result, run 4 (BXPC3 cells; 48 hours): 0.263
- MTT assay result, run 5 (BXPC3 cells; 48 hours): 0.271
- MTT assay result, run 6 (BXPC3 cells; 48 hours): 0.277
- MTT assay result, run 7 (BXPC3 cells; 48 hours): 0.288
- rel amt (relative value set to the control) (BXPC3 cells; 120 hours (5 days)): 81
- MTT assay result, av-blank (BXPC3 cells; 120 hours (5 days)): 0.465
- MTT assay result, av (BXPC3 cells; 120 hours (5 days), average of 7 runs): 0.520
- MTT assay result, run 1 (BXPC3 cells; 120 hours (5 days)): 0.485
- MTT assay result, run 2 (BXPC3 cells; 120 hours (5 days)): 0.49
- MTT assay result, run 3 (BXPC3 cells; 120 hours (5 days)): 0.522
- MTT assay result, run 4 (BXPC3 cells; 120 hours (5 days)): 0.539
- MTT assay result, run 5 (BXPC3 cells; 120 hours (5 days)): 0.551
- MTT assay result, run 6 (BXPC3 cells; 120 hours (5 days)): 0.523
- MTT assay result, run 7 (BXPC3 cells; 120 hours (5 days)): 0.527
